According to patent publication US10513511B2, “Aqueous suspension formulation comprising 4-(4-(4-(((3R,5R)-5-((1H-1,2,4-triazol-1-yl)methyl)-5-(2,4-difluoro-phenyl)tetrahydrofuran-3-yl)methoxy)-3-methylphenyl) or a pharmaceutically acceptable salt thereof” (PULMOCIDE LIMITED, priority 2015, dated 2019):

How the values were obtained:
[1] = tested on: Aspergillus fumigatus (azole susceptible strain: NCPF2010); experiment: Aspergillus fumigatus infection of human alveoli bilayers (transwells), azole susceptible strain; type: cell-based; details: for MIC50 / MIC90: Aspergillus fumigatus, NCPF2010, 24 h; for MIC50: read-out: MIC50, invasion into the lower chamber in human alveoli bilayers; for MIC90: read-out: MIC90, invasion into the lower chamber in human alveoli bilayers; for GM Levels in the Lower Chamber, OD value / GM Levels in the Lower Chamber, % inhibition vs.control / DFB50: Days taken to reach a fungal burden of 50% of control: Compound (Ia) 0.1 μg/mL upper chamber, posaconazole 0.01 μg/mL lower chamber, combination of both
Experimental: (§1) In vitro models of human alveoli, consisting of a bilayer of human alveolar epithelial cells and endothelial cells, were prepared as previously described (Hope et al., 2007). This system allows administration of a test compound to the upper (“air” space) and/or lower (“systemic” space) compartments. This flexibility has been exploited to explore the effects of combination treatment by dosing Compound (I) to the upper chamber and posaconazole or other anti-fungal agents to the lower chamber. Primary human pulmonary artery endothelial cells (HPAEC) were harvested and diluted to 10^6 cells/mL in EGM-2 media (Lonza, Basel, Switzerland). Transwells were inverted and the cell suspension (100 μL/well) applied to the base of each transwell. The inverted transwells were incubated at RT within a flow hood for 2 hr after which they were turned upright. EGM-2 media was added to the lower (700 μL/well) and upper (100 μL/well) compartments and the transwells were incubated for 48 hr (37° C., 5% CO2). The EGM-2 media in the lower compartment was then replaced with fresh EGM-2 media. A549 cells were harvested and diluted to 5×10^5 cells/mL in 10% EBM, then added to the upper compartment (100 μL/well) of all transwells and the plates incubated for 72 hr (37° C., 5% CO2). Conidia of itraconazole sensitive Aspergillus fumigatus s (NCPF2010) and itraconazole resistant (TR34-L98H) strains were cultured separately in Sabouraud dextrose agar for 3 days. A stock conidia suspension of either strain was prepared from a Sabouraud dextrose agar culture by washing with PBS-tween (10 mL; PBS containing 0.05% Tween-20, 100 U/mL Penicillin and 100 U/mL Streptomycin). The conidia count was assessed using a Neubauer haemocytometer and adjusted to 10^6 conidia/mL with PBS. A working stock of conidia was prepared in EBM (10^5 conidia/mL) immediately prior to use.
(§2) Test and reference compounds (or neat DMSO as the vehicle) were added to the appropriate wells of 24-well plates (3 μL/well containing 600 μL of 2% FBS EBM) for lower compartment treatment and to 96-well plates (1 μL/well containing 200 μL of 2% FBS EBM) for the treatment of the upper compartment, to provide a final DMSO concentration of 0.5%. The media in the upper compartment was aspirated and that containing the appropriate test and reference compounds, or vehicle, were added (100 μL/well). Transwells were then transferred into the 24-well plate containing the test and reference compounds or DMSO vehicle. After incubation for 1 hr (35° C., 5% CO2) the conidia suspension (10 μL/well) was added to the upper compartment of each transwell. Plates were then incubated for 24 hr (35° C., 5% CO2). Supernatants from each compartment (5 μL/compartment) were collected and stored (−20° C.). Media was replaced daily after collection of the supernatants and all wells were treated with test and reference compounds or with DMSO, as described above, for 3 days. Samples continued to be collected until fungal growth was visible by eye in all transwells. The levels of GM in the supernatant in lower compartment were then measured by ELISA (BioRad, CA, USA) as an index of Aspergillus fumigatus invasion.

[2] = tested on: Aspergillus fumigatus (azole resistant strain: TR34/L98H); experiment: Aspergillus fumigatus infection of human alveoli bilayers (transwells), azole resistant strain; type: cell-based; details: for MIC50 / MIC90: Aspergillus fumigatus, 24 h; for MIC50: read-out: MIC50, invasion into the lower chamber in human alveoli bilayers; for MIC90: read-out: MIC90, invasion into the lower chamber in human alveoli bilayers
Experimental: as §1, §2

[3] = Body weight loss of immunocompromised, neutropenic mice caused by A. fumigatus infection; type: in vivo, A/J mice; details: days 1, 2 and 3 (therapeutic); for Body weight loss Day 2 / Body weight loss Day 3: vs weight on day 1
Experimental: Aspergillus fumigatus (ATCC 13073 [strain: NIH 5233], American Type Culture Collection, Manassas, Va., USA) was grown on Malt agar (Nissui Pharmaceutical, Tokyo, Japan) plates for 6-7 days at RT (24±1° C.). Spores were aseptically dislodged from the agar plates and suspended in sterile distilled water with 0.05% Tween 80 and 0.1% agar. On the day of infection, spore counts were assessed by haemocytometer and the inoculum was adjusted to obtain a concentration of 1.67×10^8 spores mL^−1 of physiological saline. […] On day 0, animals were infected with the spore suspension (30 μL intra-nasally).
Test substances were administered intra-nasally (35 μL of a suspension (0.0032-10.0 mg/mL of drug substance in physiological saline) once daily, on days 1, 2 and 3 only (thereby representing a therapeutic treatment regimen). For extended prophylactic treatment, test compounds (35 μL of a suspension of 0.0032 or 0.016 mg/mL in physiological saline) were administered intra-nasally once daily for seven days. One group was dosed 30 min before infection on day 0 but not subsequently, while a second group was further dosed on days 1, 2 and 3 after infection. The effects of these treatment paradigms were compared with those obtained when treatment was restricted in other groups to either one day or 30 min before inoculation and then on days 1, 2 and 3 post infection in both cases. In a final group, dosing was limited still further with animals dosed twice, one day and 30 min before infection only.
Animal body weights were monitored daily and at 6 hr after the last dose of drug was administered on day 3, the animals were anesthetised, the tracheas cannulated and BALF blood and lung tissue were collected. The levels of IL-6 and TNFα in serum were determined using Quantikine® mouse IL-6 or TNF-α ELISA kit (R&D systems, Inc., Minneapolis, Minn., USA) respectively. Aspergillus GM in serum was determination using Platelia GM-EIA kits (Bio-Rad Laboratories, Redmond, Wash., USA). Cut-off index (COI) was calculated by the formula: Cut-off index=OD in sample/OD in cut-off control provided in kit. For tissue fungal load assays, 100 mg of lung tissue was removed aseptically and homogenized in 0.2 mL of 0.1% agar in sterile distilled water. Serially diluted lung homogenates were plated on Malt agar plates (50 μL/plate), and incubated at 24±1° C. for 72 to 96 h. The colonies of A. fumigatus on each plate were counted and the fungal titre presented herein as CFUs per gram of lung tissue.

[4] = Compound (Ia) 0.0032 mg/mL intranasal
[5] = Compound (Ia) 0.016 mg/mL intranasal
[6] = Compound (Ia) 0.08 mg/mL intranasal
[7] = Day 1, TR34-L98H, Compound 0.3 μg/mL upper chamber, posaconazole 0.1 μg/mL lower chamber, combination of both
[8] = Day 2, TR34-L98H, Compound 0.3 μg/mL upper chamber, posaconazole 0.1 μg/mL lower chamber, combination of both
[9] = Day 3, TR34-L98H, Compound 0.3 μg/mL upper chamber, posaconazole 0.1 μg/mL lower chamber, combination of both
[10] = Posaconazole 0.4 mg/mL intranasal
[11] = Posaconazole 2 mg/mL intranasal
[12] = Posaconazole 10 mg/mL intranasal

Structure (SMILES)	MIC50 [1]	MIC90 [1]	GM Levels in the Lower Chamber, OD value ([1]; Day 0, NCPF2010)	GM Levels in the Lower Chamber, % inhibition vs.control ([1]; Day 1, NCPF2010)	GM Levels in the Lower Chamber, OD value ([1]; Day 1, NCPF2010)	GM Levels in the Lower Chamber, % inhibition vs.control ([1]; Day 2, NCPF2010)	GM Levels in the Lower Chamber, OD value ([1]; Day 2, NCPF2010)	GM Levels in the Lower Chamber, % inhibition vs.control ([1]; Day 3, NCPF2010)	GM Levels in the Lower Chamber, OD value ([1]; Day 3, NCPF2010)	GM Levels in the Lower Chamber, % inhibition vs.control ([1]; Day 4, NCPF2010)	GM Levels in the Lower Chamber, OD value ([1]; Day 4, NCPF2010)	GM Levels in the Lower Chamber, % inhibition vs.control ([1]; Day 5, NCPF2010)	GM Levels in the Lower Chamber, OD value ([1]; Day 5, NCPF2010)	GM Levels in the Lower Chamber, % inhibition vs.control ([1]; Day 6, NCPF2010)	GM Levels in the Lower Chamber, OD value ([1]; Day 6, NCPF2010)	GM Levels in the Lower Chamber, % inhibition vs.control ([1]; Day 7, NCPF2010)	GM Levels in the Lower Chamber, OD value ([1]; Day 7, NCPF2010)	DFB50: Days taken to reach a fungal burden of 50% of control ([1]; NCPF2010)	MIC50 [2]	MIC90 [2]	other results
Cc1cc(N2CCN(c3ccc(C(=O)N[C@H]4CCCC[C@@H]4O)cc3)CC2)ccc1OC[C@@H]1CO[C@@](Cn2cncn2)(c2ccc(F)cc2F)C1 [Compound (Ia), 4-(4-(4-(((3R,5R)-5-((1H-1,2,4-triazol-1-yl)methyl)-5-(2,4-difluorophenyl)tetrahydrofuran-3-yl)methoxy)-3-methylphenyl)piperazin-1-yl)-N-((1S,2S)-2-hydroxycyclohexyl) benzamide]	0.154 µM	0.185 µM	0 OD	66%	0.24 OD	1.5%	1.71 OD	8.6%	1.67 OD	−1.6%	1.68 OD	0.2%	1.63 OD	−1.8%	1.57 OD	7.1%	1.54 OD	1.04 days	0.261 µM	0.417 µM	maximum inhibition of GM levels in the bottom chamber ([1]; NCPF2010, administration to the apical chamber, 1 day post infection): exceeding 90%; maximum inhibition of GM levels in the bottom chamber ([2]; TR34/L98H, administration to the apical chamber, 1 day post infection): exceeding 90%; % Inhibition of weight loss Day 2 [3, 4]: 24%; % Inhibition of weight loss Day 3 [3, 4]: 9%; Body weight loss Day 2 [3, 4]: 4.2 ± 1.2%; Body weight loss Day 3 [3, 4]: 9.7 ± 2.1%; % Inhibition of weight loss Day 2 [3, 5]: 35%; % Inhibition of weight loss Day 3 [3, 5]: 9%; Body weight loss Day 2 [3, 5]: 3.6 ± 1.2%; Body weight loss Day 3 [3, 5]: 9.7 ± 3.2%; % Inhibition of weight loss Day 2 [3, 6]: 49%; % Inhibition of weight loss Day 3 [3, 6]: 22%; Body weight loss Day 2 [3, 6]: 2.8 ± 2.4%; Body weight loss Day 3 [3, 6]: 8.3 ± 6.7%
CC[C@@H]([C@H](C)O)n1ncn(-c2ccc(N3CCN(c4ccc(OC[C@@H]5CO[C@@](Cn6cncn6)(c6ccc(F)cc6F)C5)cc4)CC3)cc2)c1=O [Posaconazole, reference compound]	0.155 µM	0.212 µM	0 OD	89%	0.074 OD	1.5%	1.71 OD	7.1%	1.70 OD	−3.0%	1.70 OD	−3.6%	1.69 OD	−3.0%	1.59 OD	2.5%	1.62 OD	1.16 days	0.315 µM	0.793 µM	GM Levels in the Lower Chamber, OD value ([2]; Day 0, TR34-L98H, Compound 0.3 μg/mL upper chamber, posaconazole 0.1 μg/mL lower chamber, combination of both): 0 OD; GM Levels in the Lower Chamber, % inhibition vs. vehicle control [2, 7]: 98%; GM Levels in the Lower Chamber, OD value [2, 7]: 0.016 OD; GM Levels in the Lower Chamber, % inhibition vs. vehicle control [2, 8]: 35%; GM Levels in the Lower Chamber, OD value [2, 8]: 0.73 OD; GM Levels in the Lower Chamber, % inhibition vs. vehicle control [2, 9]: −10%; GM Levels in the Lower Chamber, OD value [2, 9]: 1.16 OD; DFB50: Days taken to reach a fungal burden of 50% of control ([2]; TR34-L98H, Compound 0.3 μg/mL upper chamber, posaconazole 0.1 μg/mL lower chamber, combination of both): 1.94 days; % Inhibition of weight loss Day 2 [3, 10]: −15%; % Inhibition of weight loss Day 3 [3, 10]: 1%; Body weight loss Day 2 [3, 10]: 5.4 ± 0.4%; Body weight loss Day 3 [3, 10]: 9.2 ± 4.0%; % Inhibition of weight loss Day 2 [3, 11]: 17%; % Inhibition of weight loss Day 3 [3, 11]: 24%; Body weight loss Day 2 [3, 11]: 3.9 ± 1.3%; Body weight loss Day 3 [3, 11]: 7.1 ± 1.9%; % Inhibition of weight loss Day 2 [3, 12]: 17%; % Inhibition of weight loss Day 3 [3, 12]: 54%; Body weight loss Day 2 [3, 12]: 3.9 ± 1.3%; Body weight loss Day 3 [3, 12]: 4.3 ± 1.8%
